This note sets out measurements from the SangsterLogP compilation.

This series in a line: method code SF-AS, from DOI: 10.1021/jf00106a008. To be noted: pH 7.3.
Take `CCCCOn1c(=O)[nH]c(C)c(Br)c1=O`: the logD was 1.26. In turn, `CCCOn1c(=O)[nH]c(C)c(SC#N)c1=O` had a logD of -0.22.

`C=CCOn1c(=O)[nH]c(C)c(Br)c1=O` came in with a log distribution coefficient (logD) of 0.32. Turning to `CCCOn1c(=O)c(Br)c(C)n(C)c1=O`, the pH-dependent lipophilicity (logD) was 0.72. `COn1c(=O)[nH]c(C)c(Br)c1=O` yielded a logD of -0.3. As to `CCCOn1c(=O)[nH]c(CCC)c(Br)c1=O`, the logD worked out at 1.73.

For `Cc1[nH]c(=O)n(OCC(C)C)c(=O)c1Br`, the logD was 1.23. Then `CCCCCOn1c(=O)[nH]c(C)c(Br)c1=O`, with 1.69; and `CCOn1c(=O)[nH]c(C)c(Br)c1=O`, with 0.11; and `Cc1[nH]c(=O)n(OC(C)C)c(=O)c1Br`, with 0.45. `CCCCCCCCCCOn1c(=O)[nH]c(C)c(Br)c1=O` came in with a logD of 4.65. Take `CCC(C)On1c(=O)[nH]c(C)c(Br)c1=O` (stereo not drawn): the logD was 1.11.

In turn, `CCCCCCCCOn1c(=O)[nH]c(C)c(Br)c1=O` registered a logD of 3.38. On to `CCCCCCOn1c(=O)[nH]c(C)c(Br)c1=O`, for which the logD came out at 2.48. Then `Cc1[nH]c(=O)n(OCCCl)c(=O)c1Br`, with 0.3; and `CCCOn1c(=O)[nH]c(C)c(Br)c1=O`, with 0.76; and `C#CCOn1c(=O)[nH]c(C)c(Br)c1=O`, with -0.1.

As for `CCCOn1c(=O)cc(C)[nH]c1=O`, the log distribution coefficient (logD) amounted to 0.3.

What is called logD is the decadic logarithm of the distribution of all forms, ionised or not, between an organic phase and buffer at a given pH. Lower therefore signals lower lipophilicity.
